According to ChEMBL document CHEMBL1136381, “Discovery of novel low molecular weight inhibitors of IMPDH via virtual needle screening” (Bioorg Med Chem Lett, 2003):

target: Inosine-5'-monophosphate dehydrogenase (IMPDH) (Homo sapiens, UniProt P20839+P12268); assay: Inhibitory activity against (IMPDH) inosine 5'-monophosphate dehydrogenase; assay type: protein assay

Which IC50 does the source give for COc1cc(NC(=O)C(=O)NC(C)(C)C)ccc1-c1nc[nH]n1 here?
The IC50 was 15 µM.

Which IC50 does the source give for COc1ccc2[nH]cc(C(=O)CSc3ccncc3)c2c1 here?
The IC50 was 32 µM.

For Cc1cc2c(cc1C)C(=O)C(C#N)CO2 (centres undefined), which IC50 is on record?
The IC50 was 88 µM.

Nc1ccnc2cc(Cl)ccc12 was tested. Which IC50 did it give?
Its IC50 is 168 µM.

With COc1cc(NC(=O)C(=O)NC(C)(C)C)ccc1-c1cncs1 as the compound, how does the IC50 read?
The IC50 was 0.91 µM.

Cc1cc(NC(=O)C(=O)NC(C)(C)C)ccc1-c1cnco1 was tested. Which IC50 did it give?
Its IC50 is 0.2 µM.

COc1cc(NC(=O)C(=O)NC(C)(C)C)ccc1-c1cnco1 was tested. Which IC50 did it give?
The IC50 was 0.04 µM.

With COc1cc(NC(=O)C(=O)NC(C)(C)C)ccc1-c1ocnc1Cc1ccccc1 as the compound, how does the IC50 read?
Its IC50 is 35 µM.

For CC(=O)c1ccc(O)cc1C, which IC50 is on record?
The IC50 was 620 µM.

With CC(C)(C)NC(=O)C(=O)Nc1ccc(-c2cnco2)c(F)c1 as the compound, how does the IC50 read?
Its IC50 is 0.73 µM.

With N#Cc1c[nH]c2ccccc12 as the compound, how does the IC50 read?
Its IC50 is 32 µM.

CC(C)(C)NC(=O)C(=O)Nc1ccc(-c2cnco2)cc1 was tested. Which IC50 did it give?
Its IC50 is 20 µM.

For COc1cc(N)ccc1-c1cnco1, which IC50 is on record?
Its IC50 is 19 µM.

Which IC50 does the source give for CCOc1cc(NC(=O)C(=O)NC(C)(C)C)ccc1-c1cnco1 here?
The IC50 was 1.3 µM.

COc1ccc(NC(=O)C(=O)NC(C)(C)C)cc1OC was tested. Which IC50 did it give?
The IC50 was 21 µM.

Which IC50 does the source give for CCc1cc(NC(=O)C(=O)NC(C)(C)C)ccc1-c1cnco1 here?
Its IC50 is 1.2 µM.

Which IC50 does the source give for COc1cc(NC(=O)C(=O)NC(C)(C)C)ccc1-c1ocnc1C here?
The IC50 was 0.43 µM.

Which IC50 does the source give for CC(C)(C)NC(=O)C(=O)Nc1ccc(-c2cnco2)c(Cl)c1 here?
The IC50 was 0.18 µM.

How did the IC50 turn out when COc1ccc(C#N)c2ccccc12 was run?
The IC50 was 31 µM.

How did the IC50 turn out when CC(C)(C)NC(=O)C(=O)Nc1ccc(-c2cnco2)c(C(F)(F)F)c1 was run?
Its IC50 is 18 µM.

For COc1cc(NC(=O)C(=O)NC(C)(C)C)ccc1-c1ccco1, which IC50 is on record?
The IC50 was 8.1 µM.

With N#Cc1ccc2[nH]ccc2c1 as the compound, how does the IC50 read?
Its IC50 is 99 µM.

For Oc1cccc2[nH]c3ccccc3c12, which IC50 is on record?
The IC50 was 54 µM.

How did the IC50 turn out when CCCCc1ncoc1-c1ccc(NC(=O)C(=O)NC(C)(C)C)cc1OC was run?
The IC50 was 27 µM.

With Cc1ncoc1-c1ccc(NC(=O)C(=O)NC(C)(C)C)cc1 as the compound, how does the IC50 read?
Its IC50 is 14 µM.

Which IC50 does the source give for COc1ccc(NC(=O)C(=O)NC(C)(C)C)cc1-c1cnco1 here?
Its IC50 is 16 µM.

Which IC50 does the source give for CC(C)(C)NC(=O)C(=O)Nc1ccc(-c2cnco2)c(O)c1 here?
The IC50 was 4.4 µM.

How did the IC50 turn out when COc1cc(NC(=O)C(=O)NC(C)(C)C)ccc1-c1cocn1 was run?
The IC50 was 0.47 µM.

COc1cc(NC(=O)C(=O)NC(C)(C)C)ccc1-c1ccc[nH]1 was tested. Which IC50 did it give?
Its IC50 is 2.4 µM.
